{
  "source": "patent US20180146698A1",
  "about": "“FORMULA FEED FOR POULTRY” (JXTG Nippon Oil & Energy Corporation, priority 2015, published 2018)",
  "key": {"chickens [1]": {"test_system": "chickens", "assay": "Chicken egg color enhancement test 3: yolk color fan value, feeds with corn contents of 0% to 30%", "format": "in vivo", "settings": "coloring agent 2 ppm or 4 ppm", "method": "The effects of the present invention were confirmed using feeds with corn contents of 0% to 30% in the same manner as in Example 1.\nFormula feeds were prepared by adding astaxanthin or t-capsanthin to feeds with the compositions listed in Table 7 so as to result in a final concentration of 2 ppm or 4 ppm. In this Example, the feeds were the same except the corn content and the content of brown rice, which is added depending on a decrease in the corn content, and corn-derived corn gluten meal was not mixed therein."}, "chickens [2]": {"test_system": "chickens", "assay": "Yolk carotenoid content and composition 2 (eggs of Examples 5 and 6)", "settings": "corn contents of 30% to 50%; 1 to 16 ppm; fed 2 to 4 weeks"}, "[3]": {"settings": "cited from earlier work"}, "[4]": {"settings": "cited from earlier work", "remark": "listed apart in the source"}, "chickens [5]": {"test_system": "chickens", "assay": "Yolk color measurement using colorimeter 2 (eggs of Example 8)", "format": "in vivo", "settings": "2 ppm or 4 ppm; corn contents of 0% to 30%", "method": "The yolk color of eggs obtained in Example 8 was measured using a colorimeter (CM-700d, Konica Minolta Inc.). FIGS. 14a to 14c show the measurement results of the L*, a*, and b* values, respectively."}},
  "data": [
    {"smiles": "CC1=C(/C=C/C(C)=C/C=C/C(C)=C/C=C/C=C(C)/C=C/C=C(C)/C=C/C2=C(C)C(=O)[C@@H](O)CC2(C)C)C(C)(C)C[C@H](O)C1=O", "note": "[Astaxanthin, astaxanthin]", "values": [
      {"measurement": "color fan value compared with t-capsanthin", "setting": "chickens [1]", "result": "greater than that achieved by using t-capsanthin"},
      {"measurement": "amount of colorant accumulated in the yolk in relation to corn content", "setting": "chickens [2]", "result": "tended to increase as the corn content decreased"},
      {"measurement": "singlet oxygen quenching activity, stronger compared with vitamin E", "setting": "[3]", "result": "about 500 fold"},
      {"measurement": "lipid peroxidation inhibition activity, stronger compared with vitamin E", "setting": "[4]", "result": "about 1000 fold"},
      {"measurement": "a* value (red color) of yolk in relation to corn content", "setting": "chickens [5]", "result": "did not cause the a* value to significantly vary"}
    ]}
  ]
}
